For 34 compounds, DC50 results are on record in patent US20260306640A1, “TECHNOLOGIES TARGETING CELL STATES” (Auron Therapeutics, Inc., priority 2023, published 2026).

Assay [1] has as its target KAT2A (Homo sapiens, UniProt Q92830). In words: KAT2A degradation, Western Blot (Jess), NCI-H1048 cells. The assay is classed as cell-based. Details: degrader, Western blot (Jess). The conditions noted are these: NCI-H1048 cells, KAT2A, 24 h, Western Blot, vs DMSO; read-out: KAT2A NCI-H1048 DC50. As for the experimental part: (§1) MOLM-13 cells or NCI-H1048 cells were used for Western Blot analysis of KAT2A degradation. KAT2B degradation can be measured in a similar manner with NCI-H1048 cells.
(§2) H1048 cells were maintained at 37° C. in 5% CO2 and 90% humidity in HITES medium with 5% fetal bovine serum (FBS). HITES medium was […] with the following additions: 0.005 mg/ml Insulin, 0.01 mg/ml Transferrin, 30 nM Sodium selenite, 10 nM Hydrocortisone, 10 nM beta-estradiol, and extra 2 mM L-glutamine (for final concentration of 4.5 mM). Cells were plated in full media at 1 million cells/2 mL in a 6-well tissue culture treated plate with or without compounds for 24 h at 37° C. in 5% CO2.
(§3) MOLM-13 cells or NCI-H1048 cells were washed with PBS, then lysed with RIPA buffer containing 1×protease and phosphatase inhibitors (SantaCruz Biotechnologies Cat #sc-24948A). Protein was isolated by centrifugation at 12,000×g for 10 minutes at 4° C. and supernatant was collected. Protein was quantified via Bradford assay. Samples were diluted to 4 μg lysate in 16 μL RIPA buffer and then 4 μL of Jess Sample Buffer. Samples were heated at 95° C. for 5 minutes. Samples were loaded onto 12-230 kDa Jess™ Separation Module, 8×25 capillary cartridges (SM-W004, Biotechne). Antibodies loaded were: Primary antibody for KAT2A (GCN5L2 (C26A10) Rabbit mAb (3305, CST)) and for KAT2B (PCAF (C14G9)) Rabbit mAb (3378, CST) at 1:1000 and Anti-Rabbit Detection Module for Jess™ (Cat No #DM-001, Biotechne). Signal was detected by chemiluminescence.
(§4) DC50 values were determined from percent reduction of protein as compared to the DMSO control.

The target of assay [2] is KAT2B (Homo sapiens, UniProt Q92831). In words: KAT2B degradation, Western Blot (Jess), NCI-H1048 cells. The assay is classed as cell-based. Details: degrader, Western blot (Jess). Conditions: NCI-H1048 cells, KAT2B, 24 h, Western Blot, vs DMSO; read-out: KAT2B NCI-H1048 DC50. Here is the method:
as §1, §2, §3, §4

Chain of KAT2A (Q92830 whole entry): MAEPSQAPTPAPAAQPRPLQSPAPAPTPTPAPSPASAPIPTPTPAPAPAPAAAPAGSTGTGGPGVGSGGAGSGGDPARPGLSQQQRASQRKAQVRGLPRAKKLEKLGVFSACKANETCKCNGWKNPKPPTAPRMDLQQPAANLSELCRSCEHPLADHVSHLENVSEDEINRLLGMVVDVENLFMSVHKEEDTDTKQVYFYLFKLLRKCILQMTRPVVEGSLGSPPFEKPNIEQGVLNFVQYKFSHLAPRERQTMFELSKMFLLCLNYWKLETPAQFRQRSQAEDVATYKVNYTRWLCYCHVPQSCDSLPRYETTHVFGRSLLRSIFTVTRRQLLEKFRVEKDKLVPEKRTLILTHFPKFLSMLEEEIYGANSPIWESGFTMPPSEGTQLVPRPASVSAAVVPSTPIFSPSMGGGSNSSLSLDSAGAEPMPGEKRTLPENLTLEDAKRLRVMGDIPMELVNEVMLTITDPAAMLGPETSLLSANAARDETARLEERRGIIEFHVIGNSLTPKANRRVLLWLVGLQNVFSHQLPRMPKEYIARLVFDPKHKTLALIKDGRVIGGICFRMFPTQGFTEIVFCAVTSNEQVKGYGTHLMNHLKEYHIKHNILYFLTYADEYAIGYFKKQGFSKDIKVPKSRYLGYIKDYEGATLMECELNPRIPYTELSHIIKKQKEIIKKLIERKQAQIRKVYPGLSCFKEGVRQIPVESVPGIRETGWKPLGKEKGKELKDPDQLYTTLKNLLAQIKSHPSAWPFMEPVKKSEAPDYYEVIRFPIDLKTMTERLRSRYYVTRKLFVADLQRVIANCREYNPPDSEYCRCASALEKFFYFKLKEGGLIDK
Chain of KAT2B (Q92831 whole entry): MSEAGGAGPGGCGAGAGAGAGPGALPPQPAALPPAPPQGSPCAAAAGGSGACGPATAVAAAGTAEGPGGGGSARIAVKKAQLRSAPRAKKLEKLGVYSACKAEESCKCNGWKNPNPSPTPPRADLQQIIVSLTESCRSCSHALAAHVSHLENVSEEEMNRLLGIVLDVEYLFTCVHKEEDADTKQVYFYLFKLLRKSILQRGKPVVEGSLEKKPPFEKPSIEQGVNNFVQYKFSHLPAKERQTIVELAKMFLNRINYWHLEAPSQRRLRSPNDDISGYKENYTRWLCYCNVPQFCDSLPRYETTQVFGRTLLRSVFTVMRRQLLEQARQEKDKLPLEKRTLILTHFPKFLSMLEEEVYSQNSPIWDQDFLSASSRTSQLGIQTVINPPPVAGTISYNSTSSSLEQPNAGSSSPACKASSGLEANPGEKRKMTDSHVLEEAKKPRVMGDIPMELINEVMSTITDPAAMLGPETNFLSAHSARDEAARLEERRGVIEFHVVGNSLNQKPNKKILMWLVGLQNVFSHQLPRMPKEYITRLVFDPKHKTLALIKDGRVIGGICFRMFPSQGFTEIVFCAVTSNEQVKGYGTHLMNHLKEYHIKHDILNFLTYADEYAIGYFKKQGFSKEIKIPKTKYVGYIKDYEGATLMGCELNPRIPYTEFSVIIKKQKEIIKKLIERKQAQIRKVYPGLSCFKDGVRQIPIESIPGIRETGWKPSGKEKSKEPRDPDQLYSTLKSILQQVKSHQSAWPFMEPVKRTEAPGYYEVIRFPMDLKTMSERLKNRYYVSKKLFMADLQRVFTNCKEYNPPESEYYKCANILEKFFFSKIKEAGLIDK

As usually defined, the DC50 is the concentration at which degradation of the target reaches its halfway point. Take `Cc1c(N[C@@H]2C[C@H](c3ccc(C(=O)N4CCC5(CC4)CCN(c4ccc(C6CCC(=O)NC6=O)c(F)c4F)CC5)cc3)CN(C)C2)cnn(C)c1=O` (some centres unmarked) [Compound 252]: the DC50 is below 1 nM in assay [1] and 1 to 30 nM in assay [2].

On to `Cc1c(C2CCC(=O)NC2=O)ccc(N2CCC3(CCN(C(=O)c4ccc([C@H]5C[C@@H](Nc6cnn(C)c(=O)c6Br)CN(C)C5)cc4)CC3)CC2)c1F` (some centres unmarked) [Compound 254], for which the DC50 in assay [1] is below 1 nM; in assay [2], 1 to 30 nM.

Consider `Cc1cc(N2CCC3(CCN(C(=O)c4ccc([C@H]5C[C@@H](Nc6cnn(C)c(=O)c6C)CN(C)C5)cc4)CC3)CC2)cc(F)c1C1CCC(=O)NC1=O` (some centres unmarked) [Compound 255], for which the DC50 in assay [1] and in assay [2] was below 1 nM each time.

Take `Cc1c(C2CCC(=O)NC2=O)ccc(N2CCC3(CCN(C(=O)c4ccc([C@H]5C[C@@H](Nc6cnn(C)c(=O)c6C)CN(C)C5)cc4)CC3)CC2)c1F` (some centres unmarked) [Compound 256]: the values for the DC50 in assay [1] and in assay [2] were below 1 nM and 1 to 30 nM, respectively.

Regarding `COc1cc(C2CCC(=O)NC2=O)ccc1N1CCC2(CCN(C(=O)c3ccc([C@H]4C[C@@H](Nc5cnn(C)c(=O)c5C)CN(C)C4)cc3)CC2)CC1` (some centres unmarked) [Compound 257], the DC50 is below 1 nM in assay [1] and 1 to 30 nM in assay [2].

Consider `COc1cc(C2CCC(=O)NC2=O)ccc1N1CCC2(CCN(C(=O)c3ccc([C@H]4C[C@@H](Nc5cnn(C)c(=O)c5Cl)CN(C)C4)cc3)CC2)CC1` (some centres unmarked) [Compound 258], for which the figures for the DC50 in assay [1] and in assay [2] were below 1 nM and above 30 nM, respectively.

For `CN1C[C@H](Nc2cnn(C)c(=O)c2Br)C[C@H](c2ccc(C(=O)N3CCC4(CC3)CCN(c3ccc(C5CCC(=O)NC5=O)cc3OC(F)(F)F)CC4)cc2)C1` (some centres unmarked) [Compound 259], the values for the DC50 in assay [1] and in assay [2] were below 1 nM and 1 to 30 nM, respectively.

As for `CN1C[C@H](Nc2cnn(C)c(=O)c2Cl)C[C@H](c2ccc(C(=O)N3CCC4(CC3)CCN(c3ccc(C5CCC(=O)NC5=O)cc3OC(F)(F)F)CC4)cc2)C1` (some centres unmarked) [Compound 260], the 50% degradation concentration (DC50) in assay [1] is below 1 nM; in assay [2], 1 to 30 nM.

In the case of `CN1C[C@H](Nc2cnn(C)c(=O)c2Br)C[C@H](c2ccc(C(=O)N3CCC4(CC3)CCN(c3ccc(C5CCC(=O)NC5=O)cn3)CC4)cc2)C1` (some centres unmarked) [Compound 261], the DC50 in assay [1] and in assay [2] was below 1 nM throughout.

On to `CN1C[C@H](Nc2cnn(C)c(=O)c2Cl)C[C@H](c2ccc(C(=O)N3CCC4(CC3)CCN(c3ccn(C5CCC(=O)NC5=O)c(=O)c3)CC4)cc2)C1` (some centres unmarked) [Compound 262], for which the values for the DC50 in assay [1] and in assay [2] were below 1 nM and 1 to 30 nM, respectively.

With `COc1cc(N2CCC3(CCN(C(=O)c4ccc([C@H]5C[C@@H](Nc6cnn(C)c(=O)c6Br)CN(C)C5)cc4)CC3)CC2)ccc1C1CCC(=O)NC1=O` (some centres unmarked) [Compound 263], the DC50 in assay [1] and in assay [2] was below 1 nM each time.

For the compound `CN1C[C@H](Nc2cnn(C)c(=O)c2Cl)C[C@H](c2ccc(C(=O)N3CCC4(CC3)CCN(c3ncc(C5CCC(=O)NC5=O)cn3)CC4)cc2)C1` (some centres unmarked) [Compound 264], the DC50 in assay [1] and in assay [2] was below 1 nM throughout.

In the case of `Cc1cc(N2CCC3(CCN(C(=O)c4ccc([C@H]5C[C@@H](Nc6cnn(C)c(=O)c6Br)CN(C)C5)cc4)CC3)CC2)ccc1C1CCC(=O)NC1=O` (some centres unmarked) [Compound 265], the DC50 in assay [1] and in assay [2] was below 1 nM throughout.

For `Cc1cc(N2CCC3(CCN(C(=O)c4ccc([C@H]5C[C@@H](Nc6cnn(C)c(=O)c6Cl)CN(C)C5)cc4)CC3)CC2)ncc1C1CCC(=O)NC1=O` (some centres unmarked) [Compound 266], the DC50 in assay [1] and in assay [2] was below 1 nM throughout.

As for `Cc1cc(C2CCC(=O)NC2=O)cnc1N1CCC2(CCN(C(=O)c3ccc([C@H]4C[C@@H](Nc5cnn(C)c(=O)c5Cl)CN(C)C4)cc3)CC2)CC1` (some centres unmarked) [Compound 267], the DC50 in assay [1] and in assay [2] was below 1 nM throughout.

For `CN1C[C@H](Nc2cnn(C)c(=O)c2Cl)C[C@H](c2ccc(C(=O)N3CCC4(CC3)CCN(c3ccc(CN5CCC(=O)NC5=O)cc3)CC4)cc2)C1` [Compound 268], the DC50 in assay [1] is below 1 nM; in assay [2], above 30 nM.

With `Cc1c(N[C@@H]2C[C@H](c3ccc(C(=O)N4CCC5(CC4)CCN(c4ccc(C6CCC(=O)NC6=O)cc4OC(F)(F)F)CC5)cc3)CN(C)C2)cnn(C)c1=O` (some centres unmarked) [Compound 269], the figures for the DC50 in assay [1] and in assay [2] were 1 to 30 nM and above 30 nM, respectively.

As to `CN1C[C@H](Nc2cnn(C)c(=O)c2Cl)C[C@H](c2ccc(C(=O)N3CCC4(CC3)CCN(c3cc(C(F)(F)F)c(C5CCC(=O)NC5=O)cn3)CC4)cc2)C1` (some centres unmarked) [Compound 270], the DC50 in assay [1] and in assay [2] was above 30 nM each time.

`CN1C[C@H](Nc2cnn(C)c(=O)c2Br)C[C@H](c2ccc(C(=O)N3CCC4(CC3)CCN(c3ncc(C5CCC(=O)NC5=O)cn3)CC4)cc2)C1` (some centres unmarked) [Compound 271]: the DC50 in assay [1] and in assay [2] was below 1 nM throughout.

Regarding `Cc1c(N[C@@H]2C[C@H](c3ccc(C(=O)N4CCC5(CC4)CCN(c4cnc(C6CCC(=O)NC6=O)c(F)c4)CC5)cc3)CN(C)C2)cnn(C)c1=O` (some centres unmarked) [Compound 272], the DC50 in assay [1] was below 1 nM; in assay [2], above 30 nM.

With `Cc1cc(N2CCC3(CCN(C(=O)c4ccc([C@H]5C[C@@H](Nc6cnn(C)c(=O)c6Br)CN(C)C5)cc4)CC3)CC2)ncc1C1CCC(=O)NC1=O` (some centres unmarked) [Compound 273], the DC50 in assay [1] and in assay [2] was below 1 nM in each case.

In the case of `Cc1cc(C2CCC(=O)NC2=O)cnc1N1CCC2(CCN(C(=O)c3ccc([C@H]4C[C@@H](Nc5cnn(C)c(=O)c5Br)CN(C)C4)cc3)CC2)CC1` (some centres unmarked) [Compound 274], the 50% degradation concentration (DC50) in assay [1] and in assay [2] was below 1 nM throughout.

For `Cc1cc(C2CCC(=O)NC2=O)c(F)cc1N1CCC2(CCN(C(=O)c3ccc([C@H]4C[C@@H](Nc5cnn(C)c(=O)c5Br)CN(C)C4)cc3)CC2)CC1` (some centres unmarked) [Compound 275], the DC50 in assay [1] and in assay [2] was 1 to 30 nM each time.

Take `CN1C[C@H](Nc2cnn(C)c(=O)c2Cl)C[C@H](c2ccc(C(=O)N3CCC4(CC3)CCN(c3cc(F)c(C5CCC(=O)NC5=O)cc3F)CC4)cc2)C1` (some centres unmarked) [Compound 276]: the DC50 in assay [1] and in assay [2] was below 1 nM in each case.

In the case of `CN1C[C@H](Nc2cnn(C)c(=O)c2Cl)C[C@H](c2ccc(C(=O)N3CCC4(CC3)CCN(c3ccc(C5CCC(=O)NC5=O)c(OC(F)(F)F)c3)CC4)cc2)C1` (some centres unmarked) [Compound 277], the half-maximal degradation concentration (DC50) in assay [1] and in assay [2] was above 30 nM throughout.

As to `COc1cc(N2CCC3(CCN(C(=O)c4ccc([C@H]5C[C@@H](Nc6cnn(C)c(=O)c6Br)CN(C)C5)cc4)CC3)CC2)c(F)cc1C1CCC(=O)NC1=O` (some centres unmarked) [Compound 278], the DC50 in assay [1] was 1 to 30 nM; in assay [2], above 30 nM.

With `COc1cc(N2CCC3(CCN(C(=O)c4ccc([C@H]5C[C@@H](Nc6cnn(C)c(=O)c6Cl)CN(C)C5)cc4)CC3)CC2)c(F)cc1C1CCC(=O)NC1=O` (some centres unmarked) [Compound 279], the DC50 in assay [1] is below 1 nM; in assay [2], above 30 nM.

In the case of `Cc1cc(N2CCC3(CCN(C(=O)c4ccc([C@H]5C[C@@H](Nc6cnn(C)c(=O)c6Cl)CN(C)C5)cc4)CC3)CC2)cc(C)c1C1CCC(=O)NC1=O` (some centres unmarked) [Compound 283], the DC50 in assay [1] and in assay [2] was below 1 nM each time.

In the case of `COc1cc(N2CCC3(CCN(C(=O)c4ccc([C@H]5C[C@@H](Nc6cnn(C)c(=O)c6Br)CN(C)C5)cc4)CC3)CC2)c(C)cc1C1CCC(=O)NC1=O` (some centres unmarked) [Compound 284], the DC50 is below 1 nM in assay [1] and above 30 nM in assay [2].

As for `COc1cc(N2CCC3(CCN(C(=O)c4ccc([C@H]5C[C@@H](Nc6cnn(C)c(=O)c6Cl)CN(C)C5)cc4)CC3)CC2)c(C)cc1C1CCC(=O)NC1=O` (some centres unmarked) [Compound 285], the DC50 in assay [1] was below 1 nM; in assay [2], above 30 nM.

On to `COc1cc(N2CCC3(CCN(C(=O)c4ccc([C@H]5C[C@@H](Nc6cnn(C)c(=O)c6Cl)CN(C)C5)cc4)CC3)CC2)cc(C)c1C1CCC(=O)NC1=O` (some centres unmarked) [Compound 286], for which the values for the DC50 in assay [1] and in assay [2] were below 1 nM and 1 to 30 nM, respectively.

On to `COc1cc(N2CCC3(CCN(C(=O)c4ccc([C@H]5C[C@@H](Nc6cnn(C)c(=O)c6Br)CN(C)C5)cc4)CC3)CC2)cc(C)c1C1CCC(=O)NC1=O` (some centres unmarked) [Compound 287], for which the DC50 was below 1 nM in assay [1] and 1 to 30 nM in assay [2].

In the case of `Cc1cc(N2CCC3(CCN(C(=O)c4ccc([C@H]5C[C@@H](Nc6cnn(C)c(=O)c6Cl)CN(C)C5)cc4)CC3)CC2)cc(F)c1C1CCC(=O)NC1=O` (some centres unmarked) [Compound 288], the DC50 in assay [1] and in assay [2] was below 1 nM throughout.

For the compound `CN1C[C@H](Nc2cnn(C)c(=O)c2Cl)C[C@H](c2ccc(C(=O)N3CCC4(CC3)CN(c3ccc(C5CCC(=O)NC5=O)c(F)c3)C4)cc2)C1` (some centres unmarked) [Compound 289], the DC50 in assay [1] is below 1 nM; in assay [2], above 30 nM.
